Legend:
[1] = test system: Meth-A fibrosarcoma cells (Meth-A tumor cells); experiment: Antitumor activity, subcutaneous administration, Meth-A tumor-bearing mice (Examples 1 and 4); format: in vivo, female BALB/c mice; details: Table 4, day 21
Description: (§1) Meth-A fibrosarcoma cells (Meth-A tumor cells) (1×10^6 cells) were transplanted into each female BALB/c mice (weighing about 20 g) subcutaneously in the flank using a syringe. Seven days after tumor transplantation, mice in which tumor was larger than a certain defined size were chosen and grouped and administration of the test agent was started. The agent was administered subcutaneously in the opposite flank relative to the tumor transplantation site once daily for 10 consecutive days. Each ingredient of the test agent was dissolved in physiological saline (solvent) supplemented in a form of a single preparation with 5% of normal mouse serum in a concentration such that the dose of the solution amounted to 0.1 ml/20 g of mouse body weight. The antitumor effect was evaluated by measuring the tumor weight in each mouse 21 days after tumor transplantation, determining the average tumor weight for each group and calculating the tumor weight ratio (T/C %) between the dosed group (T; 5 animals per group) and the untreated control group (C; 5 to 10 animals per group). The daily dose of each ingredients was expressed in terms of the ingredient weight (mcg) per mouse.

[2] = Body weight gain of tumor-bearing mice, subcutaneous administration (Examples 1 and 4); format: in vivo, female BALB/c mice; details: Table 4; TMD-5 200 mcg/mouse/day alone s.c.
Description: as §1

[3] = TMD-76 200 mcg/mouse/day alone s.c. x10 days
[4] = TMD-5 200 mcg/mouse/day alone s.c. x10 days

Row | Compound | Tumor weight (mg) Mean ± SD [1, 3] | Tumor weight ratio (T/C %) [1, 3] | Tumor weight (mg) Mean ± SD [1, 4] | Tumor weight ratio (T/C %) [1, 4] | Body weight gain (g) (day 7 to day 21) [2]
1 | COC(=O)CC[C@@H](NC(=O)[C@@H](NC(=O)[C@@H](C)O[C@H]1[C@H](O)[C@@H](COC(=O)CCC2=C(C)C(=O)C(OC)=C(OC)C2=O)OC(O)[C@@H]1NC(C)=O)C(C)C)C(N)=O (stereo partly drawn) [TMD-76, 6-0-[3-(2,3-dimethoxy-5-methyl-1,4-benzoquinon-6-yl)propionyl]-N-acetylmuramyl-L-valyl-D-isoglutamine methyl ester] | 5,550 ± 1,776 mg | 97% |  |  | 
2 | CC(=O)N[C@H]1C(O)O[C@H](CO)[C@@H](O)[C@@H]1O[C@H](C)C(=O)NC(C)(C)C(=O)N[C@H](CCC(=O)O)C(N)=O (stereo partly drawn) [TMD-5, N-acetylmuramylaminoisobutyryl-D-isoglutamine] |  |  | 5,662 ± 1,097 mg | 99% | 3.0 g

— patent publication US4780313A (Takeda Chemical Industries, Ltd., priority 1985, dated 1988)
